The experiment has as its system MCF7. Nature of the experiment: Cytotoxicity against human MCF7 cells after 72 hrs by sulforhodamine B assay. The class given is functional, cell-based. Particulars: MCF7, 72 h. Background: The SRB assay estimates cell density from bound dye.

In brackets after ≈: the same amount, converted by molar mass.

Data on four compounds can be found in ChEMBL document CHEMBL3352309, “Three types of cytotoxic natural caged-scaffolds: pure enantiomers or partial racemates” (J Nat Prod, 2014).

For orientation: IC50 means the concentration needed to halve the response being measured. Higher therefore signals lower potency.

Consider `CO[C@]12C=C3C(=O)c4c(O)cccc4O[C@@]34C[C@@H]1C(C)(C)O[C@]2(CC=C(C)C)C4=O` (racemic), for which the IC50 was greater than 5 µg/mL. In turn, `CO[C@]12C=C3C(=O)c4c(O)cccc4O[C@@]34[C@@H](C1)C(C)(C)O[C@]4(CC=C(C)C)C2=O` (racemic) showed an IC50 of 0.36 µg/mL (≈ 0.877 µM). The same measure for `COC(=O)[C@@]1(CC=C(C)C)OC(C)(C)[C@@H]2CC(=O)C=C3C(=O)c4c(O)cccc4O[C@]321` (racemic): greater than 5 µg/mL; for `CC[C@@]1(O)C(=O)OCc2c1cc1n(c2=O)Cc2cc3ccccc3nc2-1` [CAMPTOTHECIN]: less than 0.024 µg/mL.
